Assay results as given in patent publication US6825317B2, “Cyclic tetrapeptide derivatives and pharmaceutical uses thereof” (Sumitomo Pharmaceuticals Company, Limited, priority 1999, dated 2004).
Non-standard residues stand in square brackets, D forms with d. Residues, ends and D or L forms follow the SMILES beside them. ξ: configuration not given here. *: point of attachment. Asu = N[C@@H](CCCCCC(=O)O)C(=O)O; Cha = N[C@@H](CC1CCCCC1)C(=O)O; Ile(3ξ) = CCC(C)[C@H](N)C(=O)O; dCha = N[C@H](CC1CCCCC1)C(=O)O; Aic = NC1(C(=O)O)Cc2ccccc2C1; Ac8c = NC1(C(=O)O)CCCCCCC1; Ac7c = NC1(C(=O)O)CCCCCC1; Pip = O=C(O)[C@@H]1CCCCN1; dPip = O=C(O)[C@H]1CCCCN1; Ac6c = NC1(C(=O)O)CCCCC1; Ac5c = NC1(C(=O)O)CCCC1; Aib = CC(C)(N)C(=O)O; NHOH = ON*

How the values were obtained:
[1] = tested on: MHC class-I molecule expression on B16/BL6 cells; experiment: MHC class-I molecule expression-promoting activity; type: cell-based, mouse; conditions: concentration giving twice-promoted MHC class-I expression relative to untreated control, 72 hours culture with compound
Protocol: The cyclic tetrapeptide derivatives of the present invention were investigated for their MHC class-I molecule expression-promoting actions in the following test.
The cancer cells used were mouse melanoma, B16/BL6 cells, provided by the National Cancer Institute, U.S.A. Said cells were cultured in MEM media supplemented with 10% FBS at 37° C., 5% CO2 in an humidified incubator.
A compound to be tested was preliminarily dissolved in dimethylsulfoxide (DMSO) and adjusted to a concentration of 100 mM or 10 mM (stock solution). […] Trichostatin A was used as a positive control compound for MHC class-I molecule expression-promoting action due to histone deacetylase enzyme-inhibiting activity. DMSO used as a solvent for the stock solution of a test compound would inevitably be introduced into the medium in the test; however, it had been separately confirmed not to affect the test results in amounts within the range used in the test.
Said B16/BL6 cells were inoculated on a 96-well microplate at a cell density of 5000 cells per well, each well containing 200 μAl of said medium. After culturing for 24 hours, 10 μl of a sample containing a given amount of the stock solution of a test compound which had been diluted in the medium was added and cultured for additional 72 hours. Thereafter, each well was washed once with PBS (phosphate buffered saline) and floating cells and the medium were removed. Then, the well was treated with 0.1% glutaraldehyde solution for 3 minutes to fix the cells.
The amount of MHC class-I molecule expressed on the surface of the fixed cells was measured as follows. Anti-H-2K^bD^bD^d antibody, which is an antibody against mouse MHC class-I molecule (commercially available from Meiji Milk Co., Ltd), was used as a primary antibody, biotinylated anti-mouse IgG+M (commercially available from Chemicon) was used as a secondary antibody, and streptavidin-galactosidase conjugate (commercially available from BRL) was reacted as a labeling enzyme. The amount of the thus labeled enzyme-galactosidase was measured in a microplate reader by recording the fluorescent intensity (excitation: 365 nm, fluorescence: 450 nm) resulting from the enzyme reaction product using 4-methylumbelliferyl-D-galactoside (commercially available from Nacalai Tesque) as a substrate. A fluorescence intensity measured for another well to which no test compound was added and which was treated in a similar manner without adding said primary antibody was used as a background level. The value obtained by subtracting said background level from the actually measured value (an apparent value including the background level) was defined as a true measurement reflecting the amount of expressed MHC class-I molecule.
A group without the addition of any test compound was used as a control group and the measurement of MHC class-I molecule expressed in said group was used as a standard value. The amount of MHC class-I molecule expressed at an addition concentration of each test compound was shown as a relative amount based on said standard value set to one (1). The strength of each test compound activity was compared at a concentration which provides twice-promoted expression (C×2).

[2] = tested on: histone deacetylase partially purified from B16/BL6 cells; experiment: Inhibitory activity against histone deacetylase enzyme; type: biochemical, mouse; conditions: crude enzyme from B16/BL6 cells, [3H]acetylated histone H4 peptide substrate, 37 for 3 hours; read-out: 50% inhibitory concentration
Protocol: The preparation of histone deacetylase was performed essentially according to the method of Yoshida et al. (J. Biol. Chem., 265, 17174-17179, 1990). The enzyme to be used was partially purified from B16/BL6 cells. The cells were suspended in HDA buffer (15 mM potassium phosphate, 5% glycerol, 0.2 mM EDTA, 1 mM 2-mercaptoethanol, pH 7.5), homogenized and centrifuged (2500× g, 10 min) to collect the nuclei, which were then homogenized in the same buffer containing 1 M (NH4)2SO4. After ultrasonic disruption and centrifugation, the concentration of (NH4)2SO4 in the collected supernatant was increased to 3.5 M to precipitate histone deacetylase. This precipitate was re-dissolved in HDA buffer, subjected to gel filtration to replace the solvent by HDA buffer, and used as a crude histone deacetylase enzyme solution.
As a substrate, a synthetic substrate peptide, [^3H]acetylated histone H4 peptide was used. This [^3H]acetylated histone H4 peptide was obtained by synthesizing the N-terminal peptide of histone H4; […] (SEQ ID NO: 1: the C-terminal being cysteine) and then radioactively acetylating with ^3H-acetic anhydride.
An assay was performed by incubating the synthetic substrate solution and the enzyme solution at 37 for 3 hours in the presence of a compound to be tested (reaction volume, 100 μl). The reaction was stopped by adding 25 μl of 1 M HCl and 0.2 M acetic acid, and [^3H]acetate cleaved by the enzyme reaction was extracted with ethyl acetate for radioactivity measurement. For a control group, the same procedure was repeated without addition of any test compound to the reaction system. Each test compound was evaluated for a concentration required to cause 50% inhibition of the histone deacetylase enzyme activity in the control group (50% inhibitory concentration).

SMILES	Twice promoting concentration Cx2 [1]	IC50 [2]
O=C(CCCCC[C@@H]1NC(=O)[C@H]2CCCN2C(=O)[C@H](Cc2ccccc2)NC(=O)C2(CCc3ccccc32)NC1=O)NO (single isomer, unassigned) [CHAP82, cyclo(-L-Asu(NHOH)-1Ain(f)-L-Phe-D-Pro-)]	2.69 nM	1.12 nM
O=C(CCCCC[C@@H]1NC(=O)[C@H]2CCCN2C(=O)[C@H](Cc2ccccc2)NC(=O)C2(CCc3ccccc32)NC1=O)NO (single isomer, unassigned) [CHAP83, cyclo(-L-Asu(NHOH)-1Ain(s)-L-Phe-D-Pro-)]	2.29 nM	1.95 nM
CC1(C)NC(=O)[C@H](CCCCCC(=O)NO)NC(=O)[C@H]2CCCN2C(=O)[C@H](Cc2ccccc2)NC1=O [CHAP15, cyclo(-L-Asu(NHOH)-Aib-L-Phe-D-Pro-), reference compound] (cyclo([Aib]F[dP][Asu](NHOH)))	33.2 nM	5.17 nM
O=C(CCCCC[C@@H]1NC(=O)[C@H]2CCCN2C(=O)[C@H](Cc2ccccc2)NC(=O)C2(CCCC2)NC1=O)NO [CHAP54, cyclo(-L-Asu(NHOH)-Acc5-L-Phe-D-Pro-)] (cyclo([Ac5c]F[dP][Asu](NHOH)))	5.67 nM	3.02 nM
O=C(CCCCC[C@@H]1NC(=O)[C@H]2CCCN2C(=O)[C@H](Cc2ccccc2)NC(=O)C2(CCCCC2)NC1=O)NO [CHAP55, cyclo(-L-Asu(N-HOH)-Acc6-L-Phe-D-Pro-)] (cyclo([Ac6c]F[dP][Asu](NHOH)))	5.38 nM	2.19 nM
O=C(CCCCC[C@@H]1NC(=O)[C@H]2CCCN2C(=O)[C@H](Cc2ccccc2)NC(=O)C2(CCCCCC2)NC1=O)NO [CHAP71, cyclo(-L-Asu(NHOH)-Acc7-L-Phe-D-Pro-)] (cyclo([Asu](NHOH)[Ac7c]F[dP]))	2.76 nM	2.14 nM
O=C(CCCCC[C@@H]1NC(=O)[C@H]2CCCN2C(=O)[C@H](Cc2ccccc2)NC(=O)C2(CCCCCCC2)NC1=O)NO [CHAP76, cyclo(-L-Asu(NHOH)-Acc8-L-Phe-D-Pro-)] (cyclo([Asu](NHOH)[Ac8c]F[dP]))	1.88 nM	3.99 nM
O=C(CCCCC[C@@H]1NC(=O)[C@@H]2CCCCN2C(=O)[C@H](CC2CCCCC2)NC(=O)[C@@H](CC2CCCCC2)NC1=O)NO [CHAP78, cyclo(-L-Asu(NHOH)-D-Cha-L-Cha-L-Pip-)] (cyclo([Asu](NHOH)[dCha][Cha][Pip]))	2.35 nM	3.88 nM
O=C(CCCCC[C@@H]1NC(=O)[C@H]2CCCCN2C(=O)[C@H](CC2CCCCC2)NC(=O)[C@@H](CC2CCCCC2)NC1=O)NO [CHAP79, cyclo(-L-Asu(NHOH)-D-Cha-L-Cha-D-Pip-)] (cyclo([Asu](NHOH)[dCha][Cha][dPip]))	2.79 nM	3.9 nM
O=C(CCCCC[C@@H]1NC(=O)[C@H]2CCCN2C(=O)[C@H](Cc2ccccc2)NC(=O)C2(Cc3ccccc3C2)NC1=O)NO [CHAP81, cyclo(-L-Asu(NHOH)-2Ain-L-Phe-D-Pro-)] (cyclo([Aic]F[dP][Asu](NHOH)))	1.29 nM	0.98 nM
CC(C)C[C@@H]1NC(=O)[C@@H](CC2CCCCC2)NC(=O)[C@H](CCCCCC(=O)NO)NC(=O)[C@@H]2CCCCN2C1=O [CHAP84, cyclo(-L-Asu(NHOH)-D-Cha-L-Leu-L-Pip-)] (cyclo([Asu](NHOH)[dCha]L[Pip]))	5.65 nM	2.22 nM
CC(C)C[C@@H]1NC(=O)[C@@H](CC2CCCCC2)NC(=O)[C@H](CCCCCC(=O)NO)NC(=O)[C@H]2CCCCN2C1=O [CHAP85, cyclo(-L-Asu(NHOH)-D-Cha-L-Leu-D-Pip-)] (cyclo([Asu](NHOH)[dCha]L[dPip]))	2.26 nM	1.96 nM
CC[C@H](C)[C@@H]1NC(=O)[C@@H](CC2CCCCC2)NC(=O)[C@H](CCCCCC(=O)NO)NC(=O)[C@H]2CCCCN2C1=O [CHAP86, cyclo(-L-Asu(NHOH)-D-Cha-L-Ile-D-Pip-)] (cyclo([Asu](NHOH)[dCha]I[dPip]))	3.29 nM	3.14 nM
CCC(C)[C@@H]1NC(=O)[C@@H](CC2CCCCC2)NC(=O)[C@H](CCCCCC(=O)NO)NC(=O)[C@@H]2CCCCN2C1=O (stereo partly drawn) [CHAP87, cyclo(-L-Asu(NHOH)-D-Cha-L-Ile-L-Pip-)] (cyclo([Asu](NHOH)[dCha][Ile(3ξ)][Pip]))	5.39 nM	1.98 nM
O=C(CCCCC[C@@H]1NC(=O)[C@H]2CCCCN2C(=O)[C@H](Cc2ccccc2)NC(=O)C2(CCCCCCC2)NC1=O)NO [CHAP90, cyclo(-L-Asu(NHOH)-Acc8-L-Phe-D-Pip-)] (cyclo([Asu](NHOH)[Ac8c]F[dPip]))	3.96 nM	2.75 nM
O=C(CCCCC[C@@H]1NC(=O)[C@H]2CCCCN2C(=O)[C@H](Cc2ccccc2)NC(=O)C2(Cc3ccccc3C2)NC1=O)NO [CHAP91, cyclo(-L-Asu(NHOH)-2Ain-L-Phe-D-Pip-)] (cyclo([Aic]F[dPip][Asu](NHOH)))	2.48 nM	1.2 nM
